Measured values published in paper PMC9721025, “Pharmacokinetic study of the main components of Tanreqing capsules and Tanreqing injections in beagles by liquid chromatography–tandem mass spectrometry” (Chinese Medicine, 2022).
Like-named read-outs stand apart in the source and are kept apart here.

How the values were obtained:
[1] = Pharmacokinetics in beagles, multiple-dose regimen (once per day for 7 days) of TRQI or TRQC, plasma LC-MS/MS; format: in vivo; conditions: beagle, dog; for Cmax at 7 days / Tmax at 7 days / half-life at 7 days: mean
Procedure, shortened: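 Six beagles dosed once daily for 7 days with TRQI (0.5 mL/kg injection) or TRQC (0.09 g/kg), crossover after washout. Plasma sampled 0–24 h after seventh dose, methanol/acetonitrile-precipitated, measured by LC–MS/MS. Steady-state parameters by non-compartmental analysis.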

[2] = Pharmacokinetics in beagles, single-dose regimen of TRQI (i.v.) or TRQC (oral), plasma LC-MS/MS; format: in vivo, beagle; conditions: for AUC(0-t) / Cmax / Tmax / half-life: beagle, dog, plasma; for AUC(0-t): read-out: AUC0–24 h; for Cmax / Tmax / half-life: mean of six beagles
Procedure, shortened: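 Plasma parameters came from non-compartmental analysis of LC–MS/MS data after methanol/acetonitrile precipitation. Three male and three female beagles each received single doses of both formulations in a two-period crossover, 7 days apart: 0.5 mL/kg TRQI intravenously and 0.09 g/kg TRQC by mouth, with 14 blood samples over 24 h.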

[3] = Stability of analytes in dog plasma (QC samples); format: in vitro ADME
Procedure, shortened: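 QC samples in dog plasma at three concentration levels, three replicates each, tested for short-term (6 h room temperature), long-term (−80 °C, 30 days) and freeze–thaw (three cycles, −80 °C to room temperature) stability. Working solutions prepared in methanol/water 10:90.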

[4] = cited from earlier work; for t1/2: Tanreqing injection
[5] = both sexes, iv, TRQI 0.5 mL/kg once per day for 7 days
[6] = both sexes, po, TRQC 0.09 g/kg once per day for 7 days
[7] = both sexes, iv, single i.v. dose of TRQI 0.5 mL/kg
[8] = both sexes, single oral dose of TRQC 0.09 g/kg
[9] = n = 3, high QC: nominal 200 ng/mL baicalin, 1000 ursodeoxycholic acid, 100 chenodeoxycholic acid and chlorogenic acid
[10] = n = 3, low QC: nominal 4 ng/mL baicalin, 20 ursodeoxycholic acid, 2 chenodeoxycholic acid and chlorogenic acid
[11] = n = 3, middle QC: nominal 20 ng/mL baicalin, 100 ursodeoxycholic acid, 10 chenodeoxycholic acid and chlorogenic acid

Structure (SMILES): O=C(O)[C@H]1O[C@@H](Oc2cc3oc(-c4ccccc4)cc(=O)c3c(O)c2O)[C@H](O)[C@@H](O)[C@@H]1O [Baicalin, baicalin]
- AUC(0-inf) ([1]; both sexes, iv, 0.5 mL/kg, TRQI 0.5 mL/kg for 7 days, Mean): 548 ng·h/mL
- AUC(0-t) ([1]; both sexes, iv, 0.5 mL/kg, TRQI 0.5 mL/kg for 7 days, Mean, read-out: AUC0–24 h): 395 ng·h/mL
- Cmax at 7 days [1, 5]: 1370 ng/mL
- Tmax at 7 days [1, 5]: 0.11 h
- half-life at 7 days [1, 5]: 5.54 h
- AUC(0-inf) ([1]; both sexes, po, 0.09 g/kg, TRQC 0.09 g/kg for 7 days, Mean): 142 ng·h/mL
- AUC(0-t) ([1]; both sexes, po, 0.09 g/kg, TRQC 0.09 g/kg for 7 days, Mean, read-out: AUC0–24 h): 107 ng·h/mL
- Cmax at 7 days [1, 6]: 12.2 ng/mL
- Tmax at 7 days [1, 6]: 7.25 h
- half-life at 7 days [1, 6]: 12.1 h
- AUC(0-inf) ([1]; female, iv, 0.5 mL/kg, TRQI 0.5 mL/kg for 7 days, beagle No. 4): 670 ng·h/mL
- AUC(0-t) ([1]; female, iv, 0.5 mL/kg, TRQI 0.5 mL/kg for 7 days, beagle No. 4, read-out: AUC0–24 h): 527 ng·h/mL
- AUC(0-inf) ([1]; female, iv, 0.5 mL/kg, TRQI 0.5 mL/kg for 7 days, beagle No. 5): 711 ng·h/mL
- AUC(0-t) ([1]; female, iv, 0.5 mL/kg, TRQI 0.5 mL/kg for 7 days, beagle No. 5, read-out: AUC0–24 h): 526 ng·h/mL
- AUC(0-inf) ([1]; female, iv, 0.5 mL/kg, TRQI 0.5 mL/kg for 7 days, beagle No. 6): 1290 ng·h/mL
- AUC(0-t) ([1]; female, iv, 0.5 mL/kg, TRQI 0.5 mL/kg for 7 days, beagle No. 6, read-out: AUC0–24 h): 865 ng·h/mL
- AUC(0-inf) ([1]; female, po, 0.09 g/kg, TRQC 0.09 g/kg for 7 days, beagle No. 4): 88.3 ng·h/mL
- AUC(0-t) ([1]; female, po, 0.09 g/kg, TRQC 0.09 g/kg for 7 days, beagle No. 4, read-out: AUC0–24 h): 68 ng·h/mL
- AUC(0-inf) ([1]; female, po, 0.09 g/kg, TRQC 0.09 g/kg for 7 days, beagle No. 5): 398 ng·h/mL
- AUC(0-t) ([1]; female, po, 0.09 g/kg, TRQC 0.09 g/kg for 7 days, beagle No. 5, read-out: AUC0–24 h): 245 ng·h/mL
- AUC(0-inf) ([1]; female, po, 0.09 g/kg, TRQC 0.09 g/kg for 7 days, beagle No. 6): 44.3 ng·h/mL
- AUC(0-t) ([1]; female, po, 0.09 g/kg, TRQC 0.09 g/kg for 7 days, beagle No. 6, read-out: AUC0–24 h): 32.5 ng·h/mL
- AUC(0-inf) ([1]; male, iv, 0.5 mL/kg, TRQI 0.5 mL/kg for 7 days, beagle No. 1): 45.8 ng·h/mL
- AUC(0-t) ([1]; male, iv, 0.5 mL/kg, TRQI 0.5 mL/kg for 7 days, beagle No. 1, read-out: AUC0–24 h): 42.6 ng·h/mL
- AUC(0-inf) ([1]; male, iv, 0.5 mL/kg, TRQI 0.5 mL/kg for 7 days, beagle No. 2): 534 ng·h/mL
- AUC(0-t) ([1]; male, iv, 0.5 mL/kg, TRQI 0.5 mL/kg for 7 days, beagle No. 2, read-out: AUC0–24 h): 370 ng·h/mL
- AUC(0-inf) ([1]; male, iv, 0.5 mL/kg, TRQI 0.5 mL/kg for 7 days, beagle No. 3): 37.6 ng·h/mL
- AUC(0-t) ([1]; male, iv, 0.5 mL/kg, TRQI 0.5 mL/kg for 7 days, beagle No. 3, read-out: AUC0–24 h): 36.8 ng·h/mL
- AUC(0-inf) ([1]; male, po, 0.09 g/kg, TRQC 0.09 g/kg for 7 days, beagle No. 1): 80.5 ng·h/mL
- AUC(0-t) ([1]; male, po, 0.09 g/kg, TRQC 0.09 g/kg for 7 days, beagle No. 1, read-out: AUC0–24 h): 79.6 ng·h/mL
- AUC(0-inf) ([1]; male, po, 0.09 g/kg, TRQC 0.09 g/kg for 7 days, beagle No. 2): 164 ng·h/mL
- AUC(0-t) ([1]; male, po, 0.09 g/kg, TRQC 0.09 g/kg for 7 days, beagle No. 2, read-out: AUC0–24 h): 149 ng·h/mL
- AUC(0-inf) ([1]; male, po, 0.09 g/kg, TRQC 0.09 g/kg for 7 days, beagle No. 3): 74.3 ng·h/mL
- AUC(0-t) ([1]; male, po, 0.09 g/kg, TRQC 0.09 g/kg for 7 days, beagle No. 3, read-out: AUC0–24 h): 69.7 ng·h/mL
- oral availability ([2]; TRQC in dogs): small
- AUC(0-t) ([2]; both sexes, iv, 0.5 mL/kg, single TRQI 0.5 mL/kg, Mean): 44.4 ng·h/mL
- Cmax [2, 7]: 1050 ng/mL
- Tmax [2, 7]: 0.08 h
- half-life [2, 7]: 6.75 h
- AUC(0-t) ([2]; both sexes, po, 0.09 g/kg, single TRQCs 0.09 g/kg, Mean): 14.1 ng·h/mL
- Cmax [2, 8]: 4.79 ng/mL
- Tmax [2, 8]: 3.78 h
- half-life [2, 8]: 4.97 h
- AUC(0-t) ([2]; female, iv, 0.5 mL/kg, single TRQI 0.5 mL/kg, beagle No 4): 161 ng·h/mL
- AUC(0-t) ([2]; female, iv, 0.5 mL/kg, single TRQI 0.5 mL/kg, beagle No 5): 1.98 ng·h/mL
- AUC(0-t) ([2]; female, iv, 0.5 mL/kg, single TRQI 0.5 mL/kg, beagle No 6): 39.9 ng·h/mL
- AUC(0-t) ([2]; female, po, 0.09 g/kg, single TRQCs 0.09 g/kg, beagle No 4): 15.6 ng·h/mL
- AUC(0-t) ([2]; female, po, 0.09 g/kg, single TRQCs 0.09 g/kg, beagle No 5): 1.15 ng·h/mL
- AUC(0-t) ([2]; female, po, 0.09 g/kg, single TRQCs 0.09 g/kg, beagle No 6): 3.38 ng·h/mL
- AUC(0-t) ([2]; male, iv, 0.5 mL/kg, single TRQI 0.5 mL/kg, beagle No 1): 44.5 ng·h/mL
- AUC(0-t) ([2]; male, iv, 0.5 mL/kg, single TRQI 0.5 mL/kg, beagle No 2): 18.7 ng·h/mL
- AUC(0-t) ([2]; male, iv, 0.5 mL/kg, single TRQI 0.5 mL/kg, beagle No 3): 0.47 ng·h/mL
- AUC(0-t) ([2]; male, po, 0.09 g/kg, single TRQCs 0.09 g/kg, beagle No 1): 16 ng·h/mL
- AUC(0-t) ([2]; male, po, 0.09 g/kg, single TRQCs 0.09 g/kg, beagle No 2): 36.4 ng·h/mL
- AUC(0-t) ([2]; male, po, 0.09 g/kg, single TRQCs 0.09 g/kg, beagle No 3): 11.8 ng·h/mL
- Freeze-thaw stability (3 cycles) Mean ± S.D. concentration [3, 9]: 202.81 ± 10.87 ng/mL
- Long-term stability (30 days at – 80 °C) Mean ± S.D. concentration [3, 9]: 175.01 ± 4.57 ng/mL
- Short-term stability (6 h at room temperature) Mean ± S.D concentration [3, 9]: 182.83 ± 7.72 ng/mL
- Freeze-thaw stability (3 cycles) Mean ± S.D. concentration [3, 10]: 3.97 ± 0.36 ng/mL
- Long-term stability (30 days at – 80 °C) Mean ± S.D. concentration [3, 10]: 3.50 ± 0.07 ng/mL
- Short-term stability (6 h at room temperature) Mean ± S.D concentration [3, 10]: 4.01 ± 0.31 ng/mL
- Freeze-thaw stability (3 cycles) Mean ± S.D. concentration [3, 11]: 17.88 ± 0.92 ng/mL
- Long-term stability (30 days at – 80 °C) Mean ± S.D. concentration [3, 11]: 17.47 ± 0.42 ng/mL
- Short-term stability (6 h at room temperature) Mean ± S.D concentration [3, 11]: 18.43 ± 0.75 ng/mL
- t1/2 ([4]; Hu's study): 0.8 h
- t1/2 ([4]; another study): 3.6 h
- clearance rate ([4]; rat, TRQI): 24.3 mL/min/kg
- volume of distribution ([4]; rat, TRQI): 1.07 L/kg
